From patent publication US10174047B2, “Thienodiazepine derivatives or pharmaceutically acceptable salts thereof, and pharmaceutical composition including the same as an active ingredient” (Industry-University Cooperation Foundation Hanyang …, priority 2015, dated 2019)
Read-outs that look alike come from different tables or passages of the source. Blank lines part the entries; values can stand above or below the compound they belong to.

What was measured:
FLT1/VEGFR1 = FLT1/VEGFR1 (Homo sapiens, UniProt P17948); experiment: Kinase panel screening; assay type: biochemical; details: FLT1/VEGFR1, 10 μM
Method: (§1) Using the compound of Example 43 (1-(4-((4-ethylpiperazine-1-yl)methyl)-3-(trifluoromethyl)phenyl)-3-(4-(2-oxo-2,3-dihydro-1H-thieno[3,4-b][1,4]diazepine-4-yl)phenyl)urea), kinase panel screening was conducted against 35 kinds of kinases at a concentration of 10 μM, and the results are shown in the following Tables 4 and 5 (percentages of enzymatic inhibitions exerted by compound 43 (10 μM) on 30 selected protein kinases).
(§2) Further, the IC50 values (50% inhibition concentration) of the compound of Example 43 against various kinases were calculated using GraphPad Prism 4.0 software, and the results are shown in the following Table 6.

FMS = FMS (Homo sapiens, UniProt P07333); experiment: Kinase panel screening; assay type: biochemical
Method: as §1, §2

Aurora A = Aurora A (Homo sapiens, UniProt O14965); experiment: Kinase panel screening; assay type: biochemical
Method: as §1, §2

FLT3 = FLT3 (Homo sapiens, UniProt P36888); experiment: Kinase panel screening; assay type: biochemical; details: FLT3, 10 μM
Method: as §1, §2

ALK = ALK (Homo sapiens, UniProt Q9UM73); experiment: Kinase panel screening; assay type: biochemical
Method: as §1, §2

ROS/ROS1 = ROS/ROS1 (Homo sapiens, UniProt P08922); experiment: Kinase panel screening; assay type: biochemical; details: ROS/ROS1, 10 μM
ROS/ROS1, sequence (P08922 28-2347): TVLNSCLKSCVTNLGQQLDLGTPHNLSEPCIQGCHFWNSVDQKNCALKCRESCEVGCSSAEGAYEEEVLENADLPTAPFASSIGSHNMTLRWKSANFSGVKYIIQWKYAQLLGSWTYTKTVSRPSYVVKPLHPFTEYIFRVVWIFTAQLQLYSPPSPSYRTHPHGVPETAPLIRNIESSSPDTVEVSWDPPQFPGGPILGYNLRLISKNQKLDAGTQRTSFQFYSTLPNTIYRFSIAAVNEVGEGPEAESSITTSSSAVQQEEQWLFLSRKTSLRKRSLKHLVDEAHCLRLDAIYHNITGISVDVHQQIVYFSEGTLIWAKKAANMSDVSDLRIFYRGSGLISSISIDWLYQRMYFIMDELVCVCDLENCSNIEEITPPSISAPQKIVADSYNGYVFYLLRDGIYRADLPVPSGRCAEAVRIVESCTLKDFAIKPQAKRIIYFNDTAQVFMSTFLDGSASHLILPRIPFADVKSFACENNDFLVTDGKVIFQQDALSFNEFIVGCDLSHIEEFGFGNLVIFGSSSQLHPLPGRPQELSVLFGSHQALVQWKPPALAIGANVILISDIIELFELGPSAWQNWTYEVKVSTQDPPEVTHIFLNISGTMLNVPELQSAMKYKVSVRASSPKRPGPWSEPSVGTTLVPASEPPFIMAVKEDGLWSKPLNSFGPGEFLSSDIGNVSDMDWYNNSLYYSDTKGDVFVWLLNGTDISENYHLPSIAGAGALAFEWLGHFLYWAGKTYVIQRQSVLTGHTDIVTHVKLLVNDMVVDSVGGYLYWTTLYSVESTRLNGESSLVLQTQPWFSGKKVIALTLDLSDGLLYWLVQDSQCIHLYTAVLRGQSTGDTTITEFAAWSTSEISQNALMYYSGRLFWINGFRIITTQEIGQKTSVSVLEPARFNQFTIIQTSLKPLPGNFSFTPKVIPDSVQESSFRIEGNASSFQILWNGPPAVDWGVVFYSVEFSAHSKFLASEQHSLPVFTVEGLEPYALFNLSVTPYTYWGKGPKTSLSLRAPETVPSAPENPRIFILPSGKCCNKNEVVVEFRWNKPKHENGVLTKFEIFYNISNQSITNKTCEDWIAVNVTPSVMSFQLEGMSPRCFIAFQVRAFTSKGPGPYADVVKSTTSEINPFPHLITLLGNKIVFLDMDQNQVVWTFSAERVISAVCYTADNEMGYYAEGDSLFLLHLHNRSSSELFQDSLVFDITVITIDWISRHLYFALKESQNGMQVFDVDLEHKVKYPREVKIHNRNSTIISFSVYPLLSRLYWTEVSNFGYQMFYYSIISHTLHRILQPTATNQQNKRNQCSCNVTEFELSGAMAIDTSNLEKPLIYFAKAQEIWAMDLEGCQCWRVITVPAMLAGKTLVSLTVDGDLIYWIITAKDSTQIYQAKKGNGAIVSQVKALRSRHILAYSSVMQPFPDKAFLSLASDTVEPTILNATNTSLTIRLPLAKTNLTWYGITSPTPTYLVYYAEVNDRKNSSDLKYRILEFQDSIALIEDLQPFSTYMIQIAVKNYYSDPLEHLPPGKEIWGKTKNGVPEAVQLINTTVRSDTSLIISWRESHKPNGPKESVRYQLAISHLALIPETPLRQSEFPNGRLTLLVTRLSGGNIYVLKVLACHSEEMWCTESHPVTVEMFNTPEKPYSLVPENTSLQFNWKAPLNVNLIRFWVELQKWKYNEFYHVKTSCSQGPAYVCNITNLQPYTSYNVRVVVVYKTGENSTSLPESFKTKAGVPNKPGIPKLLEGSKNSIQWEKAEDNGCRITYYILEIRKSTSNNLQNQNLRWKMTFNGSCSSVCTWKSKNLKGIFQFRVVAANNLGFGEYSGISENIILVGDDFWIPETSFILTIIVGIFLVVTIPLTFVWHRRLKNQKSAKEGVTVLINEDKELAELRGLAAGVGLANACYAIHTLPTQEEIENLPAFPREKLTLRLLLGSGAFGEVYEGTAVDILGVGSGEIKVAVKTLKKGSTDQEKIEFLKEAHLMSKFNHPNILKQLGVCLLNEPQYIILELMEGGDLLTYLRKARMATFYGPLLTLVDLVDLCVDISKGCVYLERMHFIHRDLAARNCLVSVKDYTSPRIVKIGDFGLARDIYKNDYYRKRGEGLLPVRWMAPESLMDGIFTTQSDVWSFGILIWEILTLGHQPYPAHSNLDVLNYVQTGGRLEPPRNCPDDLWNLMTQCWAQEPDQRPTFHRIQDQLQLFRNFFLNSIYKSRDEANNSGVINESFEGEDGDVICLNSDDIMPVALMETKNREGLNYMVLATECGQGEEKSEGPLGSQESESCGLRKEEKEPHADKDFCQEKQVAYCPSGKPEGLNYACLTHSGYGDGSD
Method: as §1, §2

CDK1/cyclin B = CDK1/cyclin B (Homo sapiens, UniProt P06493); experiment: Kinase panel screening; assay type: biochemical
Method: as §1, §2

FGFR2 = FGFR2 (Homo sapiens, UniProt P21802); experiment: Kinase panel screening; assay type: biochemical; details: FGFR2, 10 μM
Method: as §1, §2

RET = RET (Homo sapiens, UniProt P07949); experiment: Kinase panel screening; assay type: biochemical
Method: as §1, §2

ERK1 = ERK1 (Homo sapiens, UniProt P27361); experiment: Kinase panel screening; assay type: biochemical; details: ERK1, 10 μM
Method: as §1, §2

IGF1R = IGF1R (Homo sapiens, UniProt P08069); experiment: Kinase panel screening; assay type: biochemical
Method: as §1, §2

SYK = SYK (Homo sapiens, UniProt P43405); experiment: Kinase panel screening; assay type: biochemical
Method: as §1, §2

MEK1 = MEK1 (Homo sapiens, UniProt Q02750); experiment: Kinase panel screening; assay type: biochemical; details: MEK1, 10 μM
Method: as §1, §2

BRAF = BRAF (Homo sapiens, UniProt P15056); experiment: Kinase panel screening; assay type: biochemical
Method: as §1, §2

CDK2/cyclin E = CDK2/cyclin E (Homo sapiens, UniProt P24941); experiment: Kinase panel screening; assay type: biochemical
Method: as §1, §2

FGFR3 = FGFR3 (Homo sapiens, UniProt P22607); experiment: Kinase panel screening; assay type: biochemical; details: FGFR3, 10 μM
Method: as §1, §2

P38a/MAPK14 = P38a/MAPK14 (Homo sapiens, UniProt Q16539); experiment: Kinase panel screening; assay type: biochemical; details: P38a/MAPK14, 10 μM
Method: as §1, §2

TIE2/TEK = TIE2/TEK (Homo sapiens, UniProt Q02763); experiment: Kinase panel screening; assay type: biochemical
Method: as §1, §2

PDGFRa = PDGFRa (Homo sapiens, UniProt P16234); experiment: Kinase panel screening; assay type: biochemical
Method: as §1, §2

EGFR = EGFR (Homo sapiens, UniProt P00533); experiment: Kinase panel screening; assay type: biochemical
Method: as §1, §2

c-MET = c-MET (Homo sapiens, UniProt P08581); experiment: Kinase panel screening; assay type: biochemical
Method: as §1, §2

GSK3b = GSK3b (Homo sapiens, UniProt P49841); experiment: Kinase panel screening; assay type: biochemical
GSK3b, sequence (P49841 whole entry): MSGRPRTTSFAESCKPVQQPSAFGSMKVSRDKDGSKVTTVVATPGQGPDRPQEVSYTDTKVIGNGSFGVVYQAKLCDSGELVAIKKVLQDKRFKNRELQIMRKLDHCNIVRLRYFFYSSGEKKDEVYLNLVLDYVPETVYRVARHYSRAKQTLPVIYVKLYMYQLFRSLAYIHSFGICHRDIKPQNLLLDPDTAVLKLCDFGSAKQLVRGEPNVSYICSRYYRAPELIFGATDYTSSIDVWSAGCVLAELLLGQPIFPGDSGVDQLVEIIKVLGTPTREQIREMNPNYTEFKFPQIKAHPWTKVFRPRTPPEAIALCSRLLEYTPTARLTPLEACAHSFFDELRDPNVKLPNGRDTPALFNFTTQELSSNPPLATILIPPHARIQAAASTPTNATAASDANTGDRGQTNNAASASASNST
Method: as §1, §2

KDR/VEGFR2 = KDR/VEGFR2 (Homo sapiens, UniProt P35968); experiment: Kinase panel screening; assay type: biochemical; details: KDR/VEGFR2, 10 μM
KDR/VEGFR2, sequence (P35968 20-1356): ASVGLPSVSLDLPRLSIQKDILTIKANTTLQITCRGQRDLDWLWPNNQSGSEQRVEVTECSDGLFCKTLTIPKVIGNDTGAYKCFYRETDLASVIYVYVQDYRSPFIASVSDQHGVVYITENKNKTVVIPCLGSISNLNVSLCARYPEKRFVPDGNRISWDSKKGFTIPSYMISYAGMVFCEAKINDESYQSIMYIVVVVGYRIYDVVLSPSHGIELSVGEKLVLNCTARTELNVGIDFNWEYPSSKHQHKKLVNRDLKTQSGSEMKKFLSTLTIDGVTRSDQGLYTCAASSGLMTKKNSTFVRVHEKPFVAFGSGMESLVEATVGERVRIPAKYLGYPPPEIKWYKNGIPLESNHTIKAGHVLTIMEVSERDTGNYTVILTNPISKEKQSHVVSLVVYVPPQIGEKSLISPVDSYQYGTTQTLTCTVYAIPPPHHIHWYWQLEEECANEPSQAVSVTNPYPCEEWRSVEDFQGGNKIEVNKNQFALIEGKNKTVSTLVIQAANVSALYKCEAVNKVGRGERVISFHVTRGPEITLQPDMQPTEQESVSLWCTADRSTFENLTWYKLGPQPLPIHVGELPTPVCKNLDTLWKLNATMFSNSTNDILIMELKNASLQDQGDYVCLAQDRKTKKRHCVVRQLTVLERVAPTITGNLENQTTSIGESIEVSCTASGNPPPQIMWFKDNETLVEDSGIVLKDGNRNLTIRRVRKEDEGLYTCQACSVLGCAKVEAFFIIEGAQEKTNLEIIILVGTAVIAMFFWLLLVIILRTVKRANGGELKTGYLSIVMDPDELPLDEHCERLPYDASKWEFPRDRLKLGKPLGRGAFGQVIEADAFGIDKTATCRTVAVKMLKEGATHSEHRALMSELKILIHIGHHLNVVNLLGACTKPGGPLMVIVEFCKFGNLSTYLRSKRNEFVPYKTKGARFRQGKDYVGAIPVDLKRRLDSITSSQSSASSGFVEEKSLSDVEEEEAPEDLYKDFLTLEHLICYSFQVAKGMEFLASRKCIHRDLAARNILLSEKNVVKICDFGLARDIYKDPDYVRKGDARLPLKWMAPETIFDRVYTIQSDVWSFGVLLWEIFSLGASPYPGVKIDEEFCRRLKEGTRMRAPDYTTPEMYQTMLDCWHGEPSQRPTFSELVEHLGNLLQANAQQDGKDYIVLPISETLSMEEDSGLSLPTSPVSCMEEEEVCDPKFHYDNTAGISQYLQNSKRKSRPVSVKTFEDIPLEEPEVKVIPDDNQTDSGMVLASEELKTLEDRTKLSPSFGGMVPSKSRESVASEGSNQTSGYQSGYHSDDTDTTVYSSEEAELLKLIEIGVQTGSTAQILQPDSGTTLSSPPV
Method: as §1, §2

FAK/PTK2 = FAK/PTK2 (Homo sapiens, UniProt Q05397); experiment: Kinase panel screening; assay type: biochemical; details: FAK/PTK2, 10 μM
Method: as §1, §2

c-Src = c-Src (Homo sapiens, UniProt P12931); experiment: Kinase panel screening; assay type: biochemical
Method: as §1, §2

BRAF (V599E) = BRAF (V599E) (Homo sapiens, UniProt P15056, V600E); experiment: Kinase panel screening; assay type: biochemical
Method: as §1, §2

FGFR1 = FGFR1 (Homo sapiens, UniProt P11362); experiment: Kinase panel screening; assay type: biochemical; details: FGFR1, 10 μM
Method: as §1, §2

LCK = LCK (Homo sapiens, UniProt P06239); experiment: Kinase panel screening; assay type: biochemical
Method: as §1, §2

LYN = LYN (Homo sapiens, UniProt P07948); experiment: Kinase panel screening; assay type: biochemical
Method: as §1, §2

PDGFRb = PDGFRb (Homo sapiens, UniProt P09619); experiment: Kinase panel screening; assay type: biochemical
PDGFRb, sequence (P09619 33-1106, species assumed): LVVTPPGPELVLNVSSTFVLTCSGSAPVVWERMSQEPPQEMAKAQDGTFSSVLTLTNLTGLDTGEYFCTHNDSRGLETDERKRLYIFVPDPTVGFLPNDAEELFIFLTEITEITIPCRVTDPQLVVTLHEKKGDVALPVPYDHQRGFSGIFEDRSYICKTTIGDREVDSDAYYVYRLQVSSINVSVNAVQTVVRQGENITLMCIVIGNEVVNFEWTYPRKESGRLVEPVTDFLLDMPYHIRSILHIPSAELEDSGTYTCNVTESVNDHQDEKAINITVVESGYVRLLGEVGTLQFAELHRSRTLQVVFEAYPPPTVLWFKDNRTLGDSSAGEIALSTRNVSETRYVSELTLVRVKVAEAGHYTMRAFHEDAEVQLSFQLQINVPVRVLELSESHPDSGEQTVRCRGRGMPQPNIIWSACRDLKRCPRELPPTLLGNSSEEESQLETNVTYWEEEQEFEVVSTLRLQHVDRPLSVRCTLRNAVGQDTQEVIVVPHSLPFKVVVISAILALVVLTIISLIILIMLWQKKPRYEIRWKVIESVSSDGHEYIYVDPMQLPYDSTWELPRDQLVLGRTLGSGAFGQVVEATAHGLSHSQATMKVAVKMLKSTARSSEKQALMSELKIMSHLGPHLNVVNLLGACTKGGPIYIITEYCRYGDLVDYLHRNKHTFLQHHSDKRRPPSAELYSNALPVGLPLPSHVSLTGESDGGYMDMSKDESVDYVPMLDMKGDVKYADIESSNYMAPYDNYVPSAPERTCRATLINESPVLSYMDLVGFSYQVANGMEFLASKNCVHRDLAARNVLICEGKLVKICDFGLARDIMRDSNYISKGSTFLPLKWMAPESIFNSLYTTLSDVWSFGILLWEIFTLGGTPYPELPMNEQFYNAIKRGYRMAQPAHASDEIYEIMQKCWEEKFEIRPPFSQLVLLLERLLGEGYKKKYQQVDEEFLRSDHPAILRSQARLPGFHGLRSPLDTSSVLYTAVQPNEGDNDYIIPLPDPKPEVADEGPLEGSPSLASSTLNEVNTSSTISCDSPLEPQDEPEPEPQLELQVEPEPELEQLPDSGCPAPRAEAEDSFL
Method: as §1, §2

c-Kit = c-Kit (Homo sapiens, UniProt P10721); experiment: Kinase panel screening; assay type: biochemical
Method: as §1, §2

FLT4/VEGFR3 = FLT4/VEGFR3 (Homo sapiens, UniProt P35916); experiment: Kinase panel screening; assay type: biochemical; details: FLT4/VEGFR3, 10 μM
Method: as §1, §2

AKT1 = AKT1 (Homo sapiens, UniProt P31749); experiment: Kinase panel screening; assay type: biochemical; details: AKT1, 10 μM
Method: as §1, §2

ITK = ITK (Homo sapiens, UniProt Q08881); experiment: Kinase panel screening; assay type: biochemical
Method: as §1, §2

RAF1 = RAF1 (Homo sapiens, UniProt P04049); experiment: Kinase panel screening; assay type: biochemical; details: RAF1, 10 μM
Method: as §1, §2

[1] = test system: A375P cell line (melanoma); experiment: Proliferation inhibition activity against A375P cell line (MTT assay); assay type: cell-based; details: A375P melanoma cells; for GI50: MTT assay
Method: Measurement of Proliferation Inhibition Activity Against A375P Cell Line (Melanoma)
An A375P cell line purchased from ATCC was cultured in a DMEM medium [containing 10% FBS, 1% penicillin/streptomycin] at 37° C. in the presence of 5% CO2. The cultured A375P cell line was taken using 0.05% trypsin-0.02% EDTA, and seeded into a 96-well plate at a density of 5×10^3 cells per well.
Cell viability was measured using an MTT [3-(4,5-dimethylthiazol-2-yl)-2,5-diphenyltetrazolium bromide] assay (CellTiter 96 Assay, Promega) as follows. 15 μl of dye was placed per well, the cells were cultured for 2 hours, and then treated with 100 μl of a stop solution, and after 24 hours, absorbance was measured. One day after plating, they were treated with compounds. For treatment with compounds, […] of stock was prepared, and serially diluted to one-third in dimethyl sulfoxide (DMSO) to prepare a 12-point test compound plate, and 0.5 μl was added (final concentration DMSO 0.5%).
In the following Tables 1 to 3, in a case of GI50 being 10 to 30 μM, it was indicated as (+), in a case of it being 1 to 10 μM, it was indicated as (++), and in case of being less than 1 μM, it was indicated as (+++).

SMILES: CCN1CCN(Cc2ccc(NC(=O)Nc3ccc(C4=Nc5cscc5NC(=O)C4)cc3)cc2C(F)(F)F)CC1 [Example 43, 1-(4-((4-ethylpiperazine-1-yl)methyl)-3-(trifluoromethyl)phenyl)-3-(4-(2-oxo-2,3-dihydro-1H-thieno[3,4-b][1,4]diazepine-4-yl)phenyl)urea]
inhibition at 10 µM (FLT1/VEGFR1): 79.1% | inhibition at 10 µM (FMS): 100% | inhibition at 10 µM (Aurora A): 20.4% | inhibition at 10 µM (FLT3): 98.9% | inhibition at 10 µM (ALK): 41% | inhibition at 10 µM (ROS/ROS1): 3.71% | inhibition at 10 µM (CDK1/cyclin B): 2.68% | inhibition at 10 µM (FGFR2): 29.9% | inhibition at 10 µM (RET): 99.1% | inhibition at 10 µM (ERK1): 1.22% | inhibition at 10 µM (IGF1R): 1.34% | inhibition at 10 µM (SYK): 57.4% | inhibition at 10 µM (MEK1): 5.26% | inhibition at 10 µM (BRAF): 32% | inhibition at 10 µM (CDK2/cyclin E): 0.28% | inhibition at 10 µM (FGFR3): 45% | inhibition at 10 µM (P38a/MAPK14): 89.9% | inhibition at 10 µM (TIE2/TEK): 64.9% | inhibition at 10 µM (PDGFRa): 85.9% | inhibition at 10 µM (EGFR): 24.8% | inhibition at 10 µM (c-MET): 21.7% | inhibition at 10 µM (GSK3b): 8.62% | inhibition at 10 µM (KDR/VEGFR2): 60.2% | inhibition at 10 µM (FAK/PTK2): 41.2% | inhibition at 10 µM (c-Src): 55.2% | inhibition at 10 µM (BRAF (V599E)): 43.9% | inhibition at 10 µM (FGFR1): 34.4% | inhibition at 10 µM (LCK): 79.3% | inhibition at 10 µM (LYN): 89.4% | inhibition at 10 µM (PDGFRb): 96.1% | inhibition at 10 µM (c-Kit): 85.9% | inhibition at 10 µM (FLT4/VEGFR3): 95.8% | inhibition at 10 µM (AKT1): 3.23% | inhibition at 10 µM (ITK): 20.7% | inhibition at 10 µM (RAF1): 86.2% | GI50 ([1]; read-out: A375P (GI50)): < 1 µM | GI50 ([1]; read-out: GI50 value against A375P): 1.45 µM | effects against A375P ([1]; statement in words): significant effects

SMILES: O=C1CC(c2ccc(NC(=O)Nc3ccc(Cl)cc3)cc2)=Nc2cscc2N1 [Example 40, 1-(4-chlorophenyl)-3-(4-(2-oxo-2,3-dihydro-1H-thieno[3,4-b][1,4]diazepine-4-yl)phenyl)urea]
GI50 ([1]; read-out: A375P (GI50)): 1 to 10 µM

SMILES: O=C(Cc1ccc(-c2ccccc2)cc1)Nc1ccc(C2=Nc3cscc3NC(=O)C2)cc1 [Example 16, 2-(biphenyl-4-yl)-N-(4-(2-oxo-2,3-dihydro-1H-thieno[3,4-b][1,4]diazebine-4-yl)phenyl)acetamide]
GI50 ([1]; read-out: A375P (GI50)): 10 to 30 µM

Results, then the compound that gave them:

GI50 ([1]; read-out: A375P (GI50)): 10 to 30 µM
SMILES: CN1CCN(c2cc(C(=O)Nc3cccc(C4=Nc5cscc5NC(=O)C4)c3)cc(C(F)(F)F)c2)CC1 [Example 29, 3-(4-methylpiperazine-1-yl)-N-(3-(2-oxo-2,3-dihydro-1H-thieno[3,4-b][1,4]diazepine-4-yl)phenyl)-5-(trifluoromethyl)benzamide]

GI50 ([1]; read-out: A375P (GI50)): 10 to 30 µM
SMILES: Cc1cc(C)cc(C(=O)Nc2cccc(C3=Nc4cscc4NC(=O)C3)c2)c1 [Example 34, 3,5-dimethyl-N-(3-(2-oxo-2,3-dihydro-1H-thieno[3,4-b][1,4]diazepine-4-yl)phenyl)benzamide]

GI50 ([1]; read-out: A375P (GI50)): 1 to 10 µM
SMILES: O=C1CC(c2cccc(NC(=O)c3ccc(N4CCOCC4)c(C(F)(F)F)c3)c2)=Nc2cscc2N1 [Example 21, 4-morpholino-N-(3-(2-oxo-2,3-dihydro-1H-thieno[3,4-b][1,4]diazepine-4-yl)phenyl)-3-(trifluoromethyl)benzamide]
